According to patent US20250296934A1, “AZEPINOINDOLES AND METHODS OF PREPARATION THEREOF” (priority 2022, published 2025):
Read-outs that look alike come from different tables or passages of the source.

Key:
[1] = system: TA98
[2] = system: TA1537
[3] = system: TA100
[4] = In vitro hepatocyte clearance, mouse; format: in vitro ADME; settings: Mouse hepatocytes
Experimental: (§1) Additional experimentation was performed on compounds 1, W5, and A93. Table 6a, 6b and 6c summarize, among other things, the anticipated hepatic clearance of compounds 1, W5 and A93 respectively, in various species, as specified in Table 6a, 6b and 6c and as determined by calculating the in vitro hepatocyte clearance over time and scaling such rate with such species' hepatocyte count and the anticipated liver blood flow rate in such species.

[5] = system: hepatocyte; experiment: In vitro hepatocyte clearance, mouse; format: in vitro ADME; settings: Mouse
Experimental: as §1

[6] = In vitro hepatocyte clearance, human; format: in vitro ADME; settings: Human hepatocytes
Experimental: as §1

[7] = system: hepatocyte; experiment: In vitro hepatocyte clearance, human; format: in vitro ADME; settings: Human
Experimental: as §1

[8] = molecular target: 5-HT5A (Homo sapiens, UniProt P47898); experiment: 5-HT receptor activity (Table 3), 5-HT5A; format: cell-based
[9] = In vitro hepatocyte clearance, dog; format: in vitro ADME
Experimental: as §1

[10] = system: hepatocyte; experiment: In vitro hepatocyte clearance, dog; format: in vitro ADME; settings: Dog
Experimental: as §1

[11] = molecular target: 5-HT6 (Homo sapiens, UniProt P50406); experiment: 5-HT receptor activity (Table 3), 5-HT6; format: cell-based
[12] = molecular target: 5-HT1B (Homo sapiens, UniProt P28222); experiment: 5-HT receptor activity (Table 3), 5-HT1B; format: cell-based
[13] = molecular target: T1, 5-HT2C (Homo sapiens, UniProt P28335); experiment: cell-based; format: cell-based; design: expressed in transfected cells; host or cells: HEK293T
T1 sequence (P28335 33-458): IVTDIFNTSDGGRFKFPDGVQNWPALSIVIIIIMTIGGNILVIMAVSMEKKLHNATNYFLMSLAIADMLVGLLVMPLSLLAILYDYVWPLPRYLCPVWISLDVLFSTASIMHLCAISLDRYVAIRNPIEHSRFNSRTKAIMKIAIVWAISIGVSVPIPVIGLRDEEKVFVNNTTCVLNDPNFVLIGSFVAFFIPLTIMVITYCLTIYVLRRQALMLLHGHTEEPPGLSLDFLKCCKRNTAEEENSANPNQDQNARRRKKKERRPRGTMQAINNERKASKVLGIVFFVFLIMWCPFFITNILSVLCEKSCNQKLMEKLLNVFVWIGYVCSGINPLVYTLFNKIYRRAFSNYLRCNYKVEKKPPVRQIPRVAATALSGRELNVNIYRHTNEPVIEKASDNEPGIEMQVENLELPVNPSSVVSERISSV

[14] = molecular target: T1, 5-HT2C; experiment: cell-based; settings: Table 3
[15] = Plasma PK in dog; format: in vivo
Excerpt: Tables 7a and 7b summarize, among other things, the observed plasma PK properties in animals, for Compound 1: […]

[16] = system: SafetyScreen44™ panel hits; experiment: Follow up functional assays of SafetyScreen44 hits; design: species or system human
Experimental: Various compounds disclosed herein were subjected to an in vitro SafetyScreen44™ panel for identifying off-target activity. Compounds of interest that are identified in the panel are then tested in follow up functional assays to identify if such compounds have a significant off-target risk. […] It is predicted that other compounds share similar characteristics with compound 1 and also lack of the off-target activity.

Chain of 5-HT1B (P28222 whole entry, species assumed): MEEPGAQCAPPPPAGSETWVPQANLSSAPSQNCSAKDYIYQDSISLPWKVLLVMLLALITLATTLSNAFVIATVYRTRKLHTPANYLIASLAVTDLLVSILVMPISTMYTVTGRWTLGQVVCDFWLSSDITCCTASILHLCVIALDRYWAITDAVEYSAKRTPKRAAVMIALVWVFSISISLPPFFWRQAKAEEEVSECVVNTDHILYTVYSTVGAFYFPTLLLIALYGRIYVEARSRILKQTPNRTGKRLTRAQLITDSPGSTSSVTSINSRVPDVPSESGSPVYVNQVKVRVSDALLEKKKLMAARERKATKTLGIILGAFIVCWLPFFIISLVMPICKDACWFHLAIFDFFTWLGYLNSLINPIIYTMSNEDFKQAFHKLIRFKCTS
Chain of 5-HT6 (P50406 whole entry, species assumed): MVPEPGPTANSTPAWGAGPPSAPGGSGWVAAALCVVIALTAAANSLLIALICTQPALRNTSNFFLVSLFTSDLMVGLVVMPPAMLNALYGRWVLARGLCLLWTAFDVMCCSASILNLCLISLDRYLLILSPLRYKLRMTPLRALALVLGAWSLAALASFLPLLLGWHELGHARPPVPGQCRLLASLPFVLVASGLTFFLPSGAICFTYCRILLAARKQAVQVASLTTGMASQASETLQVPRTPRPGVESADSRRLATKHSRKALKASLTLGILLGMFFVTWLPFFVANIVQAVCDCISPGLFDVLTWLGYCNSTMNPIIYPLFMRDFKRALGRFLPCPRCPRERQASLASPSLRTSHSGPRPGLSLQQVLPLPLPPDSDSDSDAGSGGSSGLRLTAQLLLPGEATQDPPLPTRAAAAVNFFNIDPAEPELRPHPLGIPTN
Chain of 5-HT5A (P47898 whole entry, species assumed): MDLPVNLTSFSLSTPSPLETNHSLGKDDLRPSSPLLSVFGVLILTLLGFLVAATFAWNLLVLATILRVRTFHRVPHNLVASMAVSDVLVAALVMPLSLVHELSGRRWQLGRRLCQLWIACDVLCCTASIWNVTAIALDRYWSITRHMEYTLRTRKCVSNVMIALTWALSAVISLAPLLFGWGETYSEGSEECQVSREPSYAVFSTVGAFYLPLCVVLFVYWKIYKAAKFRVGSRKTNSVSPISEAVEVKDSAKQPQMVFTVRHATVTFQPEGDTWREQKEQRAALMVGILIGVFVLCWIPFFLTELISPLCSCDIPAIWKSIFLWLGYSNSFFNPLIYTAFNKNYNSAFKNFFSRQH

With `Cc1ccc(O)c2c3c([nH]c12)CCNCC3` [Cpd #1 (Pharm-136), 7-Methyl-1,2,3,4,5,6-hexahydroazepino[4,5-b]indol-10-ol] the “Count (n. of wells)” value ([1]; TA98 + S9, 1.0E−04M) was 0 n. of wells, the Significance ([1]; TA98 + S9, 1.0E−04M) was “Negative” and the “Count (n. of wells)” value ([1]; TA98 + S9, 1.0E−05M) was 3 n. of wells. The Significance ([1]; TA98 + S9, 1.0E−05M) was “Negative”, the “Count (n. of wells)” value ([1]; TA98 + S9, 5.0E−05M) was 0 n. of wells and the Significance ([1]; TA98 + S9, 5.0E−05M) was “Negative”. For the same compound, the “Count (n. of wells)” value ([1]; TA98 + S9, 5.0E−06M) was 9 n. of wells, the Significance ([1]; TA98 + S9, 5.0E−06M) was “Weak positive” and the “Count (n. of wells)” value ([1]; TA98 − S9, 1.0E−04M) was 0 n. of wells. The Significance ([1]; TA98 − S9, 1.0E−04M) was “Negative”, the “Count (n. of wells)” value ([1]; TA98 − S9, 1.0E−05M) was 0 n. of wells and the Significance ([1]; TA98 − S9, 1.0E−05M) was “Negative”. For the same compound, the “Count (n. of wells)” value ([1]; TA98 − S9, 5.0E−05M) was 0 n. of wells, the Significance ([1]; TA98 − S9, 5.0E−05M) was “Negative” and the “Count (n. of wells)” value ([1]; TA98 − S9, 5.0E−06M) was 1 n. of wells. For the same compound, the Significance ([1]; TA98 − S9, 5.0E−06M) was “Negative”, the “Count (n. of wells)” value ([2]; TA1537 + S9, 1.0E−04M) was 0 n. of wells and the Significance ([2]; TA1537 + S9, 1.0E−04M) was “Negative”. The “Count (n. of wells)” value ([2]; TA1537 + S9, 1.0E−05M) was 1 n. of wells, the Significance ([2]; TA1537 + S9, 1.0E−05M) was “Negative” and the “Count (n. of wells)” value ([2]; TA1537 + S9, 5.0E−05M) was 0 n. of wells. For the same compound, the Significance ([2]; TA1537 + S9, 5.0E−05M) was “Negative”, the “Count (n. of wells)” value ([2]; TA1537 + S9, 5.0E−06M) was 2 n. of wells and the Significance ([2]; TA1537 + S9, 5.0E−06M) was “Negative”. The “Count (n. of wells)” value ([2]; TA1537 − S9, 1.0E−04M) was 0 n. of wells, the Significance ([2]; TA1537 − S9, 1.0E−04M) was “Negative” and the “Count (n. of wells)” value ([2]; TA1537 − S9, 1.0E−05M) was 1 n. of wells. The Significance ([2]; TA1537 − S9, 1.0E−05M) was “Negative”, the “Count (n. of wells)” value ([2]; TA1537 − S9, 5.0E−05M) was 0 n. of wells and the Significance ([2]; TA1537 − S9, 5.0E−05M) was “Negative”. For the same compound, the “Count (n. of wells)” value ([2]; TA1537 − S9, 5.0E−06M) was 0 n. of wells, the Significance ([2]; TA1537 − S9, 5.0E−06M) was “Negative” and the “Count (n. of wells)” value ([3]; TA100 + S9, 1.0E−04M) was 0 n. of wells. The Significance ([3]; TA100 + S9, 1.0E−04M) was “Negative”, the “Count (n. of wells)” value ([3]; TA100 + S9, 1.0E−05M) was 8 n. of wells and the Significance ([3]; TA100 + S9, 1.0E−05M) was “Negative”. For the same compound, the “Count (n. of wells)” value ([3]; TA100 + S9, 5.0E−05M) was 1 n. of wells, the Significance ([3]; TA100 + S9, 5.0E−05M) was “Negative” and the “Count (n. of wells)” value ([3]; TA100 + S9, 5.0E−06M) was 13 n. of wells. The Significance ([3]; TA100 + S9, 5.0E−06M) was “Negative”, the “Count (n. of wells)” value ([3]; TA100 − S9, 1.0E−04M) was 0 n. of wells and the Significance ([3]; TA100 − S9, 1.0E−04M) was “Negative”. For the same compound, the “Count (n. of wells)” value ([3]; TA100 − S9, 1.0E−05M) was 1 n. of wells, the Significance ([3]; TA100 − S9, 1.0E−05M) was “Negative” and the “Count (n. of wells)” value ([3]; TA100 − S9, 5.0E−05M) was 0 n. of wells. The Significance ([3]; TA100 − S9, 5.0E−05M) was “Negative”, the “Count (n. of wells)” value ([3]; TA100 − S9, 5.0E−06M) was 2 n. of wells and the Significance ([3]; TA100 − S9, 5.0E−06M) was “Negative”. For the same compound, the hepatocyte CLint [4] was 33 µL/min/1e6 cells, the half-life ([4]; read-out: In vitro T1/2) was 0.703 h and the CLint scaled ([4]; read-out: Scale-up Clint) was 389 mL/min/kg. The “Hepatic Extraction Ratio (E)” value [5] was 0.81, the “Predicted hepatic CL” value [5] was 73.10 mL/min/kg and the hepatocyte CLint [6] was under 2.71 µL/min/1e6 cells. The half-life ([6]; read-out: In vitro T1/2) was over 8.53 h, the CLint scaled ([6]; read-out: Scale-up Clint) was under 6.89 mL/min/kg and the “Hepatic Extraction Ratio (E)” value [7] was under 0.25. The “Predicted hepatic CL” value [7] was under 5.17 mL/min/kg, the EC50 [8] was “Not active” and the hepatocyte CLint ([9]; Dog hepatocytes) was under 2.71 µL/min/1e6 cells. For the same compound, the half-life ([9]; Dog hepatocytes, read-out: In vitro T1/2) was over 8.53 h, the CLint scaled ([9]; dog, hepatocytes, read-out: Scale-up Clint) was under 18.6 mL/min/kg and the “Hepatic Extraction Ratio (E)” value [10] was under 0.38. The “Predicted hepatic CL” value [10] was under 11.62 mL/min/kg, the EC50 [11] was 53.2 nM and the Eff [11] was 55%. The EC50 [12] was 327 nM, the Eff [12] was 74% and the EC50 ([13]; Gq dissociation BRET, HEK293T) was 0.5 nM. For the same compound, the “5-HT2C BRET Eff” value ([13]; normalized to % 5-HT stimulation) was 101%, the EC50 [14] was 0.5 nM and the Eff [14] was 95%. For the same compound, the AUC(0-t) ([15]; IV, 2 mg/kg) was 1200 ng·h/mL, the half-life ([15]; IV, 2 mg/kg) was 2.84 h and the clearance ([15]; IV, 2 mg/kg, read-out: Cltot (converted)) was 24.6 mL/min/kg. It also gave a Vd ([15]; IV, 2 mg/kg, read-out: Vss) of 5.15 L/kg, an AUC(0-t) ([15]; PO, 10 mg/kg) of 5460 ng·h/mL and a Vz_F ([15]; PO, 10 mg/kg) of 7.648 L/kg. For the same compound, the half-life ([15]; PO, 10 mg/kg) was 3.21 h, the Follow up studies [16] was “No significant off-” and the Follow up studies ([16]; listed as compound 1) was “does not possess significant off-target activity”.
